From publication PMC12398856, “A GLP-1 analogue optimized for cAMP-biased signaling improves weight loss in obese mice” (Molecular Metabolism, 2025) come the findings set out here.

Structures are written as SMILES.

Data set [1] deals with T1, GLP-1R (Homo sapiens, UniProt P43220). Briefly: CRE-Luciferase reporter assay (cAMP production) in BHK cells expressing GLP-1R. The note with it: read-out: Log(data) cAMP EC50 (converted). It is filed as cell-based. (In general: In a reporter assay the amount or activity of a reporter protein is the signal.)
Target sequence in this assay (P43220 24-463, species assumed): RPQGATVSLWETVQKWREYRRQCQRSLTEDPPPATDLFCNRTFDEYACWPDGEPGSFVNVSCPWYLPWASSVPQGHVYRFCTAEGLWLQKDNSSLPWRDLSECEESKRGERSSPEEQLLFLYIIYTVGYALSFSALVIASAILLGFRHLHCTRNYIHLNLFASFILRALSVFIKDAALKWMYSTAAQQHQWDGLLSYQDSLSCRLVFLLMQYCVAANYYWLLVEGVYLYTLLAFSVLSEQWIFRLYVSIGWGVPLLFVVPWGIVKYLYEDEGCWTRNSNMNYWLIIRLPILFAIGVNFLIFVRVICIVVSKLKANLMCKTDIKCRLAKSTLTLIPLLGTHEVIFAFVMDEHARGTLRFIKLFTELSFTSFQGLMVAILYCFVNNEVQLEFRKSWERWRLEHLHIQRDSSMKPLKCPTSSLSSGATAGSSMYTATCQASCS
Protocol: Briefly, stably transfected baby hamster kidney (BHK) cell lines expressing GLP-1R and firefly luciferase reporter gene linked to the cAMP response element (CRE) were seeded in poly-D-lysine-coated 96 well opaque well tissue culture plates at 5,000 cells per well in growth media, incubated overnight, and washed once in Dulbecco's phosphase-buffered saline (DPBS). To each well was added 50 μL of assay buffer (DMEM without phenol red, 10 mM HEPES, 1 × Glutamax, 1% ovalbumin, 0.1% Pluronic F-68) containing serial dilutions of test compounds. The test plates were incubated at 37 °C for 3 h in a CO2 incubator, then washed once with 100 uL per well of DPBS followed by addition of 100 μL per well of SteadyLite plus reagent (PerkinElmer). The assay plates were covered to protect reagent from light, shaken at 250 rpm at room temperature for 30 min, and read in a microtiter plate reader. EC50 values were calculated using Prism software (GraphPad) as the nonlinear regression of log(compound concentration) vs. response.
Data set [2] has as its target T1, GLP-1R. The data set can be described thus: β-arrestin recruitment (Barr) at GLP-1R, Supplemental Table 1. It is filed as cell-based. The note with it: negative log10 of EC50; read-out: Log(data) Barr EC50 (converted).
Target sequence in this assay (P43220 24-463, species assumed): as above
A further data set is described as follows: in vivo. The note with it: mouse, sc, t1/2.
Data set [3] addresses T1, GLP-1R. Briefly: BRET-based cAMP production assay (CAMYEL sensor) in GLP-1R+ HEK293T cells. It is filed as cell-based. Also on record: host or cells: HEK293T (ATCC), transient transfection with Lipofectamine 2000. Background: BRET reads energy transfer from a luciferase to a nearby fluorophore.
Target sequence in this assay (P43220 24-463): as the sequence (P43220 24-463, species assumed) above
Protocol: Briefly, HEK293T cells (ATCC) were cultured in Dulbecco's Modified Eagle Medium (DMEM) supplemented with 10% heat-inactivated fetal bovine serum (FBS), 100 IU/mL of penicillin, and 100 mg/mL of streptomycin solution. […] BRET measurements were taken every 60 s using a PHERAstar FS multi-mode microplate reader. Ligand-induced dynamics in GLP-1R signaling or trafficking were measured as subsequent changes relative to baseline (after time point zero). Each experiment was independently performed at least three times, with at least three technical replicates for each group. Positive or negative incremental areas under the curve (iAUC) were calculated and represented for dose–response relationships.

Protocol for in vivo: Thus, the PK profiles are an overall average of 8 mice/group and 4 mice/subgroup sampled at each time point. […] Briefly, plasma concentration–time profiles were analyzed by a non-compartmental method (Pharsight Phoenix WinNonLin v.6.4). The terminal half-life (t1/2), maximum plasma concentration (Cmax), time for maximum plasma concentration (tmax), and AUC from zero to last (AUC0-t) were determined.
Briefly, plasma proteins were precipitated by mixing plasma samples with 6 volumes of methanol-containing internal standard in micronic 1.5 mL microcentrifuge tubes, followed by centrifugation for 20 min at 13,000×g. The supernatant was transferred to a 96-well plate and diluted with water containing 0.1% formic acid and mixed thoroughly. Diluted samples were injected into the LC-MS/MS system. […] The mass spectrometric detection was performed on a Thermo Scientific TSQ Quantis triple quadrupole system with electrospray ionization in positive ion mode.

As usually defined, the EC50 is the concentration giving half of the maximal effect. The half-life is how long it takes for the measured level to halve. Consider `CC[C@H](C)[C@H](NC(=O)[C@H](Cc1ccccc1)NC(=O)[C@H](CCC(=O)O)NC(=O)[C@H](CCCNC(=N)N)NC(=O)[C@H](C)NC(=O)[C@H](C)NC(=O)[C@H](CCC(N)=O)NC(=O)[C@H](CCC(=O)O)NC(=O)[C@H](CCC(=O)O)NC(=O)[C@H](CC(C)C)NC(=O)[C@H](Cc1ccc(O)cc1)NC(=O)[C@H](CO)NC(=O)[C@H](CO)NC(=O)[C@@H](NC(=O)[C@H](CC(=O)O)NC(=O)[C@H](CO)NC(=O)[C@@H](NC(=O)[C@H](Cc1ccccc1)NC(=O)[C@@H](NC(=O)CNC(=O)[C@H](CCC(=O)O)NC(=O)[C@H](Cc1c[nH]c2ccccc12)NC(=O)CCc1c[nH]cn1)[C@@H](C)O)[C@@H](C)O)C(C)C)C(=O)N[C@@H](C)C(=O)N[C@@H](Cc1c[nH]c2ccccc12)C(=O)N[C@@H](CC(C)C)C(=O)N[C@H](C(=O)N[C@@H](CCCNC(=N)N)C(=O)NCC(=O)N[C@@H](CCCNC(=N)N)C(=O)N[C@@H](CCCCNC(=O)COCCOCCNC(=O)COCCOCCNC(=O)CC[C@H](NC(=O)CCCCCCCCCCCCCCCCC(=O)O)C(=O)O)C(=O)O)C(C)C` [NNC5840], for which the values for the EC50 at GLP-1R [1], on GLP-1R [2] and on GLP-1R [3] were 0.0192 nM, 20.1 nM and 73.9 nM, respectively. In “in vivo”, this molecule had a half-life of 21.7 h.
